The target in one data set is T1, human topoisomerase II (Homo sapiens, UniProt P11388).
T1 construct: Topo II was purified from late log phase suspension cultures of HeLa WIS; endogenous in cells; host or cells: HeLa WIS (late log phase suspension cultures); native enzyme purified in house
Put plainly: Mammalian (human) topoisomerase II inhibition assay: topo II-DNA complex stabilisation. The data set is classed as biochemical. Particulars: concentration with activity equal to the EC50 of reference mAMSA; 20 min at 37° C. The source says: Mammalian Topoisomerase II Inhibition Assay Procedure
The inhibition of human topoisomerase II (hereafter topo II) was quantitated by a procedure adapted from that described by Trask et al., EMBO J., 3, 671-676 (1984). The assay quantitates the amount of topo II covalently complexed by DNA at equilibrium during a topo II reaction. This assay determines the potential of a compound to stabilize this complex, which potential is closely related to the cytotoxicity of the compound.
Topo II was purified from late log phase suspension cultures of HeLa WIS by an adaption of the method described by Per et al., Mol. Pharmacol., 32, 17-25 (1987).
Assays (in duplicate) were assembled at 4° C. Assay mix (25 μl) was distributed in Beckman (No. 265270) 1.5 ml microtitre tubes followed by the addition of 5 μl test compound to yield the final concentrations of assay components:
4 ng 3' end labeled (32p) pBR322 DNA (10^7 DPM/μg)
The assay mix including the test compound was incubated for 20 minutes at 37° C. The reaction was terminated at 37° C. by the addition of 3 μl 10% SDS followed by the addition of 266 μl 10 mM Tris-Cl pH 7.5, 20 μg/ml BSA, 20 μg/ml calf thymus DNA, 1% SDS.
A SDS/protein precipitate was formed by the addition of 28 μl 2.5M KCl followed by chilling on ice for a minimum of 10 minutes. The precipitate was collected and washed with a Brandell cell harvester on a GFB glass fiber filter membrane as follows. The contents of the assay tube were drawn up into the harvester. The tube was then rinsed 7× with 10 mM Tris-Cl pH 7.5, 1 mM EDTA and 100 mM KCl. The precipitate was washed with 1 L of a solution of 10 mM Tris-Cl pH 7.5, 1 mM EDTA, 100 mM KCl followed by 1 L of 95% ethyl alcohol and finally 0.5 L 70% of ethyl alcohol (per 48 samples in each case). After drying, CPM was determined by liquid scintillation counting with 5 ml Biofluor (NEN Research Products) or Readisafe (Beckman Instruments Inc.) cocktail.
Preparation of test compound--A stock solution (6 mg/ml) of test compound was prepared either in 0.1N sodium hydroxide or 0.2N hydrogen chloride. This solution then was diluted 1/5 into water and serially thereafter in either 0.02N sodium hydroxide or 0.04N hydrogen chloride, respectively. The stock solution and serial dilution of the test compound was stored at -20° C. prior to testing.
Screening of test compound--As an initial screen, the test compound was tested at a final concentration of 2, 20 and 200 μg/ml.
Controls--A solvent control which indicates the base level of topo II-DNA complex formed in the absence of the test compound was included in each test. A control, in which topo II was omitted, was included for each test compound at the highest drug concentration tested.
Reference agent--A dose response curve with mAMSA at 0.01, 0.08, 0.16, 0.32, 1.0 and 10 μg/ml was included in each test.
Data reduction--The EC50 (effective concentration at which 50% of the maximal DNA-topo II complex is formed) of a test compound is defined to be the concentration with activity equal to the EC50 of the reference agent, mAMSA. The maximal DNA-topo II complex formed is taken as that equal to that formed at the nearly saturating dose of mAMSA (10 μg/ml).

Data set [1] can be described thus: In vivo antitumor assay, pancreatic ductal adenocarcinoma No. 03 (Panc03, SC). Set-up: species or system mice. The following applies: mouse, in vivo; Panc03 (SC); drug SC; QD3-9; read-out: Maximum Tolerated Total Dose. The source says:
(§1) In vivo Antitumor Assay Procedure
(§2) Mice: Inbred: C3H/He; and Hybrids: B6D2F1 (C57BL/6 females×DBA/2 males), CD2F1 (Balb/c females×DBA/2 males) and B6C3F1 (C57BL/6×C3H) were bred at Wayne State University from strains obtained from the Frederick Cancer Research Facility, Frederick, Md. or from commercial suppliers.
(§3) Tumors: Murine Tumors: P388 leukemia and the following transplantable solid tumors of mice were used for in vivo testing: B16 melanoma, pancreatic ductal adenocarcinoma No. 03, colon adenocarcinoma No. 38 and mammary ductal adenocarcinoma No. 16/C. All tumors are in the Developmental Therapeutics Program frozen tumor repository, maintained by the Biological Testing Branch, Frederick, Md. Each has a detailed description, code identification number, and list of references at the National Tumor Repository. Tumors were maintained in the mouse strain of origin and were transplanted in the appropriate F1 hybrid (or the strain of origin) for therapy trials. The mice were supplied food and water ad libitum.
(§4) Chemotherapy: For pancreatic ductal adenocarcinoma No. 03, colon adenocarcinoma No. 38, and mammary ductal adenocarcinoma No. 16, the following methods were used to help ensure a more uniform tumor burden per mouse (thus reducing the requirement for greater numbers of mice per group), bilateral tumor implants were used. The animals necessary to begin an experiment were pooled, implanted bilaterally s.c. on day zero with 30-60-mg tumor fragments using a 12-gauge trocar, and again pooled before randomization to the various treatment and control groups. Chemotherapy was started within three days after tumor implantation while the number of cells per mouse was relatively small (1×10^7 -1×10^8 cells).
(§5) End Points for Assessing Antitumor Activity: Quantitative end points used to assess antitumor activity included % Increased Life Span (% ILS), Tumor Cell Kill (Log10 kill), and Tumor Growth Inhibition (T/C). Long Term Survivors (45 or 60 day) were excluded from calculations of % ILS and Tumor Cell Kill.
(§6) Endpoints were calculated as follows: [formula] where Dt is the median day of death for treated and Dc is the median day of death for control groups.
(§7) T/C Value: Tumors were measured with a caliper once or twice weekly (as needed) until either tumors exceeded 1600 mg or cure was assured. Tumor weights were estimated from two-dimensional measurements: Tumor Weight (mg)=(a×b^2)/2, where a and b are the tumor length and width (mm), respectively. Measurements were carried out simultaneously in both the treatment and control groups. When the control group tumors reached approximately 750-1500 mg in size (median of group), the median tumor weight of each group was determined (including zeros). The T/C value in percent is an indication of antitumor effectiveness. […]. […]

Data set [2] is described as follows: In vivo antitumor assay, mammary ductal adenocarcinoma No. 16/C (SC). Details: species or system mice. The following applies: mouse, in vivo; Mam16/C (SC); drug SC; QD1-4; read-out: Maximum Tolerated Total Dose.
Source text: as §1, §2, §3, §4, §5, §6, §7

Data set [3] concerns mammary ductal adenocarcinoma No. 16/C. The description is as above. Set-up: species or system mice.
Source text: as §1, §2, §3, §4, §5, §6, §7

T1 sequence (P11388 whole entry): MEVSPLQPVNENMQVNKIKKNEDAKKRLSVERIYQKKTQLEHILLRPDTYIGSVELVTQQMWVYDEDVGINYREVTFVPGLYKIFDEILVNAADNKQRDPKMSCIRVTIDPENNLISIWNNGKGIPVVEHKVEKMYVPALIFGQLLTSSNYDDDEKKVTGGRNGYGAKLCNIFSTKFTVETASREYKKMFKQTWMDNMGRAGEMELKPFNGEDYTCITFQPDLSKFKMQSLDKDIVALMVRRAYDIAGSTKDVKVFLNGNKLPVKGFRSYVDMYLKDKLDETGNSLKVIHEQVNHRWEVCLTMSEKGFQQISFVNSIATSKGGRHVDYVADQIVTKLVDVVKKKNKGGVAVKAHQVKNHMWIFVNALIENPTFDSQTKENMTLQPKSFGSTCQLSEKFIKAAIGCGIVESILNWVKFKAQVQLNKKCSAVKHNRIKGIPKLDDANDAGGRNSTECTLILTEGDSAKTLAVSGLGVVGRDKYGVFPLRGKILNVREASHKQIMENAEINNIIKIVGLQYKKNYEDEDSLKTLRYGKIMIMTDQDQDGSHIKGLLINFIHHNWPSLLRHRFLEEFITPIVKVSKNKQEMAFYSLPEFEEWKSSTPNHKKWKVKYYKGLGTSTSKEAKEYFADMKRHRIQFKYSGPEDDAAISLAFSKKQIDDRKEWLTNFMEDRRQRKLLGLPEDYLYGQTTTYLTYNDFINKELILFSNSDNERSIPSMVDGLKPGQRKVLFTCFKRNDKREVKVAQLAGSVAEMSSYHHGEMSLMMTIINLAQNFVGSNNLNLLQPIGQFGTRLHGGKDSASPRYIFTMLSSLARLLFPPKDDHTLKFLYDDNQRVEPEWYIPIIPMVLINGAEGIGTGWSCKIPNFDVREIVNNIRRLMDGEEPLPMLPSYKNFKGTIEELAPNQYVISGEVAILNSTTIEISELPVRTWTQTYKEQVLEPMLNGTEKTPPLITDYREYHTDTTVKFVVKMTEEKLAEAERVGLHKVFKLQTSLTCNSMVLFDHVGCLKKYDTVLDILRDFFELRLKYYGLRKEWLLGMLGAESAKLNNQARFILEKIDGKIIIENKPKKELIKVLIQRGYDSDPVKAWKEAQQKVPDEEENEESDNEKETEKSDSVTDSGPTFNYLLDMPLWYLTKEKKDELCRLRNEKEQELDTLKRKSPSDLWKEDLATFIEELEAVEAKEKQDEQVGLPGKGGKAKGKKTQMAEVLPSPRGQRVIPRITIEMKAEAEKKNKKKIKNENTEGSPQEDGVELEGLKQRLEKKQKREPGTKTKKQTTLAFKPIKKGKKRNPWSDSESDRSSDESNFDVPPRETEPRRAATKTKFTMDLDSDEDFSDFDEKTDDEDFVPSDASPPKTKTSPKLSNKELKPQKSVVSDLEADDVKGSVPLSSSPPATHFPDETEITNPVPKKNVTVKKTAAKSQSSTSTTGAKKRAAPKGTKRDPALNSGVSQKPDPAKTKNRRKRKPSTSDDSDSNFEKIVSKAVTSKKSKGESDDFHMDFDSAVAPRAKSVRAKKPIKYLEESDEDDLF

At human topoisomerase II, `Cc1cc(-c2c(F)cc3c(=O)c(C(=O)O)cn4c3c2SC[C@@H]4C)cc(C)n1` [Example 5, (S)-10-(2,6-Dimethyl-4-pyridinyl)-9-fluoro-3-methyl-7-oxo-2,3-dihydro-7H-pyrido[1,2,3-de][1,4]benzothiazine-6-carboxylic acid] returned an EC50 of 9.4 µM. The MTD in data set [1] was 781 mg/kg; in data set [2] it was 263 mg/kg. Further, the “Long Term Survivors” value in data set [3] (Mam16/C (SC), drug SC, QD1-4, 263 mg/kg total) is 0/5. Further, the “% T/C” value in data set [3] (Mam16/C (SC), drug SC, QD1-4, at maximum tolerated total dose 263 mg/kg) is given as 15%. Also, the “antitumor activity (in words)” value in data set [3] (Mammary Adenocarcinoma No. 16/C) is reported as “clearly active”.

One may read the EC50 as the concentration at which the effect is half-maximal.

Values taken from US5308843A, “Method of inhibiting mammalian topoisomerase II and malignant cell growth in mammals, with substituted (S)-3-methyl-7-oxo-2,3-dihydro-7H-pyrido[1,2,3-de][1,4 ]-benzoxazine(and-benzothiazine)-6-carboxylic acids” (Sterling Drug Inc., priority 1990, dated 1994).
